Test results from patent US11639364B2, “Potent sialyltransferase inhibitors” (STICHTING RADBOUD UNIVERSITEIT, priority 2018, dated 2023).
Like-named read-outs stand apart in the source and are kept apart here.

Tests used:
B16-F10 cells = experiment: Inhibition of cell surface sialylation, lectin staining and flow cytometry, B16-F10 cells; assay type: cell-based, Mouse; conditions: Mus musculus, 72 h, three days
Experimental: (§1) Mouse B16-F10 melanoma cells (ATCC CRL-6475) were cultured in Minimum Essential Medium (MEM) (Gibco, Invitrogen, Carlsbad, Calif.) containing 5% fetal bovine serum (FBS) (Greiner Bio-one, Frickenhausen, Germany), 1% MEM non-essential amino acids (Gibco), 0.15% sodium bicarbonate (Gibco), 1 mM sodium pyruvate (Gibco), 1.5% MEM vitamins (Gibco), 1% antibiotic-antimycotic solution (50 U/ml penicillin, 50 μg/ml streptomycin and 125 ng/ml amphotericin B) (Gibco). The murine 9464D neuroblastoma cell line was cultured in Dulbecco's Modified Eagle's Medium (DMEM, Glutamax, Gibco) with 10% FBS, 1% non-essential amino acids, 50 μM 2-mercaptoethanol (Sigma-Aldrich) and 1% antibiotic-antimycotic solution (Kroesen et al., 2014, DOI: 10.1002/ijc.28463, Stauffer et al., 2012, DOI: 10.3109/07357907.2012.664670). The murine EL4 T lymphocyte cell line (ATCC TIB-39) was cultured in Iscove's Modified Dulbecco's Medium (IMDM, Gibco) supplemented with 5% FBS and 1% antibiotic-antimycotic solution. Human HEK293 (ATCC CRL-1573) kidney cells and human HeLa (ATCC CCL-2) cervical cancer cells were cultured in DMEM containing 10% FBS, 2 mM glutamine (Lonza, Walkersville, Md.) and 1% antibiotic-antimycotic solution. Human monocytic THP-1 cells (TIB-202, ATCC) were cultured in RRMI-1640 medium (Gibco) supplemented with 10% FBS, 2 mM glutamine and 1% antibiotic-antimycotic solution. All cell lines were cultured in a humidified 5% CO2 incubator at 37° C.
(§2) To assess the effect of the synthesized compounds on cell surface sialylation, different murine and human cell lines were cultured for three days in the presence of 0-204.8 μM amide and carbamate fluorine sialic acids. Cells treated with an equal final percentage of DMSO were used as control and all cells were subjected to lectin staining and flow cytometry as described below. To investigate the longevity of the effect of the fluorine sialic acids on cell surface sialylation, B16-F10 cells treated with 25.6 μM or 51.2 μM were thoroughly washed with medium to remove fluorine sialic acids from the culture and reseeded. During a period of six days, cells were harvested every day and sialylation was assessed by flow cytometry.
(§3) For the lectin staining, all cells were harvested and washed with 1× carbo-free blocking solution (Vector Laboratories, Inc., Burlingame, Calif., USA) and stained for 45 minutes at 4° C. in 1× carbo-free blocking solution containing 1 mM CaCl2), 1 mM MgCl2 and biotinylated MALII (5 μg/ml), SNA-1 (1 μg/ml) or PNA (5 μg/ml) all obtained from Vector Laboratories Inc. MALII recognizes α2,3-linked sialic acids, SNA-1 recognizes α2,6-linked sialic acids and PNA binds to terminal 3-galactose. In addition, B16-F10 cells were stained with 2 μg/ml biotinylated AAL (α-linked Fucose), LCA (α-linked Mannose), PHA-L (complex glycans), GSL-I (α-linked Galactose and N-Acetylgalactosamine), WGA (chitobiose), SJA (β-linked Galactose and N-Acetylgalactosamine) and PSA (Glucose and Mannose) purchased from Vector Laboratories Inc. Next, the cells were washed thrice in PBA (1×PBS, 1% BSA, and 0.02% sodium azide) and stained for 10 minutes at 4° C. with 2 μg/ml streptavidin-phycoerythrin (PE) (BD Pharmingen, Franklin Lakes, N.J., USA). The cells were washed thrice again with PBA and fluorescence was assessed using a CyAn ADP flow cytometer (BD Biosciences, San Jose, Calif.) followed by analysis with FlowJo software (Tree Star Inc., Ashland, Oreg.). Untreated cells stained with streptavidin-PE only served as background fluorescence control. The percentages lectin binding was calculated by normalizing the mean fluorescence intensity values from the treated cells with the DMSO controls.
(§4) IC50 values and statistics were calculated using Prism 5.03 (GraphPad Software, Inc., La Jolla, Calif.). Statistical significance between the different groups was calculated using one-way ANOVA followed by Bonferroni post-hoc testing and P-values<0.05 were considered significant (p<0.05 *, p<0.01 **, p<0.001 ***). […]

THP-1 cells = experiment: Inhibition of cell surface sialylation, lectin staining and flow cytometry, THP-1 cells; assay type: cell-based, Human; conditions: Homo sapiens, 72 h, three days
Experimental: as §1, §2, §3, §4

HEK293 cells = experiment: Inhibition of cell surface sialylation, lectin staining and flow cytometry, HEK293 cells; assay type: cell-based, Human; conditions: Homo sapiens, 72 h, three days
Experimental: as §1, §2, §3, §4

HeLa cells = experiment: Inhibition of cell surface sialylation, lectin staining and flow cytometry, HeLa cells; assay type: cell-based, human; conditions: Homo sapiens, 72 h, three days
Experimental: as §1, §2, §3, §4

9464D cells = experiment: Inhibition of cell surface sialylation, lectin staining and flow cytometry, 9464D cells; assay type: cell-based, murine; conditions: Mus musculus, 72 h, three days
Experimental: as §1, §2, §3, §4

EL4 cells = experiment: Inhibition of cell surface sialylation, lectin staining and flow cytometry, EL4 cells; assay type: cell-based, murine; conditions: Mus musculus, 72 h, three days
Experimental: as §1, §2, §3, §4

[1] = MALII lectin binding, read-out: α2,3-Sia IC50
[2] = SNA-I lectin binding, read-out: α2,6-Sia IC50

Row | IC50 (B16-F10 cells; [1]) [µM] | IC50 (B16-F10 cells; [2]) [µM] | IC50 (THP-1 cells; [1]) [µM] | IC50 (THP-1 cells; [2]) [µM] | IC50 (HeLa cells; [1]) [µM] | IC50 (HeLa cells; [2]) [µM] | IC50 (9464D cells; [1]) [µM] | IC50 (9464D cells; [2]) [µM] | IC50 (EL4 cells; [1]) [µM] | IC50 (EL4 cells; [2]) [µM] | Structure (SMILES) | IC50 (HEK293 cells; [1]) [µM] | IC50 (HEK293 cells; [2]) [µM]
1 | 25.5 ± 2.53 | 32.4 ± 1.38 |  |  |  |  |  |  |  |  | COCCOC(=O)N[C@@H]1C(OC(C)=O)C(F)C(OC(C)=O)(C(=O)OC)OC1[C@H](OC(C)=O)[C@@H](COC(C)=O)OC(C)=O (stereo partly drawn) [SiaFMox, Methyl 5-(2-methoxy-ethylcarbamado)-2,4,7,8,9-penta-O-acetyl-3,5-dideoxy-3-fluoro-D-glycero-R-galacto-non-2-ulopyranosonate] |  | 
2 | 3.33 ± 0.12 | 15.1 ± 3.7 | 0.5 ± 1.34 | 0.62 ± 1.77 | 5.15 ± 2.4 | 4.32 ± 1.82 | 24.4 ± 2.95 | 36.1 ± 6.4 | 51.8 ± 18.7 | 51.1 ± 8.97 | COC(=O)C1(OC(C)=O)OC([C@H](OC(C)=O)[C@@H](COC(C)=O)OC(C)=O)[C@H](NC(=O)OCC(C)C)C(OC(C)=O)C1F (stereo partly drawn) [SiaFiBu, Methyl 5-(isobutylcarbamado)-2,4,7,8,9-penta-O-acetyl-3,5-dideoxy-3-fluoro-D-glycero-β-galacto-non-2-ulopyranosonate] | 11.4 ± 4.73 | 9.61 ± 4.83
3 | 0.72 ± 0.2 | 2.59 ± 0.07 | 0.42 ± 0.9 | 0.44 | 1.65 ± 2.27 | 1.37 ± 0.81 | 10.7 ± 2.85 | 40.2 ± 6.56 | 51 ± 8.62 | 51.6 ± 2.62 | C#CCOC(=O)N[C@@H]1C(OC(C)=O)C(F)C(OC(C)=O)(C(=O)OC)OC1[C@H](OC(C)=O)[C@@H](COC(C)=O)OC(C)=O (stereo partly drawn) [SiaFPoc, Methyl 5-(propargylcarbamado)-2,4,7,8,9-penta-O-acetyl-3,5-dideoxy-3-fluoro-D-glycero-β-galacto-non-2-ulopyranosonate] | 1.19 ± 1.47 | 5.42 ± 1.4
4 | 14.3 ± 0.77 | 33.3 ± 2.63 | 3.3 ± 1.26 | 7.19 ± 3.6 | 25.5 ± 2.61 | 33.4 ± 4.38 | 46.5 ± 4.41 | > 102 | > 102 | > 102 | COC(=O)C1(OC(C)=O)OC([C@H](OC(C)=O)[C@@H](COC(C)=O)OC(C)=O)[C@H](NC(=O)C(F)(F)F)C(OC(C)=O)C1F (stereo partly drawn) [SiaFTFA, Methyl 5-(trifluoroacetamido)-2,4,7,8,9-penta-O-acetyl-3,5-dideoxy-3-fluoro-D-glycero-β-galacto-non-2-ulopyranosonate, reference compound] | 42.8 ± 2.38 | 41.4 ± 10.4
5 | 40.6 ± 5.67 | 52.5 ± 4.31 | 10.4 ± 2.14 | 12.6 ± 3.51 | 62.3 ± 3.91 | 51.2 ± 6.06 | > 102 | > 102 | > 102 | > 102 | C#CCCC(=O)N[C@@H]1C(OC(C)=O)C(F)C(OC(C)=O)(C(=O)OC)OC1[C@H](OC(C)=O)[C@@H](COC(C)=O)OC(C)=O (stereo partly drawn) [SiaFPen, Methyl 5-(4-pentynacetamido)-2,4,7,8,9-penta-O-acetyl-3,5-dideoxy-3-fluoro-D-glycero-β-galacto-non-2-ulopyranosonate, reference compound] | 26.2 ± 2.37 | 44.7 ± 4.33
6 | 7.45 ± 0.92 | 7.91 ± 1.95 |  |  |  |  |  |  |  |  | CCCCOC(=O)N[C@@H]1C(OC(C)=O)C(F)C(OC(C)=O)(C(=O)OC)OC1[C@H](OC(C)=O)[C@@H](COC(C)=O)OC(C)=O (stereo partly drawn) [SiaFnBu, Methyl 5-(butylcarbamado)-2,4,7,8,9-penta-O-acetyl-3,5-dideoxy-3-fluoro-D-glycero-β-galacto-non-2-ulopyranosonate] |  | 

Further lines, the molecule ahead of its results:

Row | Structure (SMILES) | IC50 (B16-F10 cells; [1]) [µM] | IC50 (B16-F10 cells; [2]) [µM] | IC50 (THP-1 cells; [1]) [µM] | IC50 (THP-1 cells; [2]) [µM] | IC50 (HeLa cells; [1]) [µM] | IC50 (HeLa cells; [2]) [µM] | IC50 (9464D cells; [1]) [µM] | IC50 (9464D cells; [2]) [µM] | IC50 (EL4 cells; [1]) [µM] | IC50 (EL4 cells; [2]) [µM] | IC50 (HEK293 cells; [1]) [µM] | IC50 (HEK293 cells; [2]) [µM]
7 | COC(=O)C1(OC(C)=O)OC([C@H](OC(C)=O)[C@@H](COC(C)=O)OC(C)=O)[C@H](NC(=O)OCc2ccccc2)C(OC(C)=O)C1F (stereo partly drawn) [SiaFCbz, Methyl 5-(benzylcarbamado)-2,4,7,8,9-penta-O-acetyl-3,5-dideoxy-3-fluoro-D-glycero-β-galacto-non-2-ulopyranosonate, reference compound] | 14.5 ± 3.51 |  |  |  |  |  |  |  |  |  |  | 
8 | C=CCOC(=O)N[C@@H]1C(OC(C)=O)C(F)C(OC(C)=O)(C(=O)OC)OC1[C@H](OC(C)=O)[C@@H](COC(C)=O)OC(C)=O (stereo partly drawn) [SiaFAII, 5-(alloxycarbamado)-2,4,7,8,9-penta-O-acetyl-3,5-dideoxy-3-fluoro-D-glycero-β-galacto-non-2-ulopyranosonate] | 1.39 ± 0.21 | 2.87 ± 0.8 | 0.41 ± 0.73 | 0.38 | 1.77 ± 1.78 | 2.04 ± 1.4 | 6.91 ± 3.56 | 9.64 ± 3.93 | 39.9 ± 4.95 | 50.9 ± 6.44 | 1.83 ± 1.19 | 1.68 ± 3.2
9 | COC(=O)C1(OC(C)=O)OC([C@H](OC(C)=O)[C@@H](COC(C)=O)OC(C)=O)[C@H](NC(=O)CN=[N+]=[N-])C(OC(C)=O)C1F (stereo partly drawn) [SiaFAz, Methyl 5-(azidoacetamido)-2,4,7,8,9-penta-O-acetyl-3,5-dideoxy-3-fluoro-D-glycero-β-galacto-non-2-ulopyranosonate, reference compound] | 19.9 ± 2.08 | 32.8 ± 3.55 | 10.9 ± 1.98 | 13.2 ± 3.02 | 80.6 ± 3.26 | 42.2 ± 8.42 | > 102 | > 102 | > 102 | > 102 | 45.6 ± 5.14 | 47.2 ± 2.89
10 | COC(=O)C1(OC(C)=O)OC([C@H](OC(C)=O)[C@@H](COC(C)=O)OC(C)=O)[C@H](NC(=O)OC(C)(C)C)C(OC(C)=O)C1F (stereo partly drawn) [SiaFBoc, Methyl 5-(tert-butoxycarbamado)-2,4,7,8,9-penta-O-acetyl-3,5-dideoxy-3-fluoro-D-glycero-β-galacto-non-2-ulopyranosonate] | 3.48 ± 0.56 | 8.21 ± 0.67 | 1.28 ± 1.36 | 1.72 ± 2.3 | 12.8 ± 1.61 | 20.6 ± 1.95 | 36.5 ± 3.81 | > 102 | 54.6 ± 3.22 | 50.3 ± 3.99 | 10.4 ± 4.76 | 28 ± 2.57
11 | COC(=O)C1(OC(C)=O)OC([C@H](OC(C)=O)[C@@H](COC(C)=O)OC(C)=O)[C@H](NC(=O)COC(C)=O)C(OC(C)=O)C1F (stereo partly drawn) [SiaFGc, Methyl 5-(acetoxyamido)-2,4,7,8,9-penta-O-acetyl-3,5-dideoxy-3-fluoro-D-glycero-β-galacto-non-2-ulopyranosonate] | 4.98 ± 0.33 | 11.8 ± 2.27 | 4.24 ± 2 | 5.94 ± 2.18 | 16.6 ± 3.91 | 12.5 ± 2.52 | > 102 | > 102 | > 102 | > 102 | 53.6 ± 5.25 | 54.1 ± 15.3
12 | COC(=O)C1(OC(C)=O)OC([C@H](OC(C)=O)[C@@H](COC(C)=O)OC(C)=O)[C@H](NC(=O)CCl)C(OC(C)=O)C1F (stereo partly drawn) [SiaFAcC, Methyl 5-(chloroacetamido)-2,4,7,8,9-penta-O-acetyl-3,5-dideoxy-3-fluoro-D-glycero-β-galacto-non-2-ulopyranosonate, reference compound] | 18 ± 2.12 |  |  |  |  |  |  |  |  |  |  | 
